Where a SMILES comes first, the peptide text is derived from it. Bridges are numbered along the chain shown (N, C = ends). [ ]: non-standard residue; d: D form. The star is where a group is joined. hPhe(3-Cl-4-CF3) = N[C@@H](CCc1ccc(C(F)(F)F)c(Cl)c1)C(=O)O; NPrPhe(4-CF3) = CCCN[C@@H](Cc1ccc(C(F)(F)F)cc1)C(=O)O; NMeGly(cPent) = CN[C@H](C(=O)O)C1CCCC1; Pro(4,4-F2) = O=C(O)[C@@H]1CC(F)(F)CN1; Gly(cPent) = N[C@H](C(=O)O)C1CCCC1; NMeD = CN[C@@H](CC(=O)O)C(=O)O; NMeL = CN[C@@H](CC(C)C)C(=O)O; Morpholide = C1CN(*)CCO1; Ac5c = NC1(C(=O)O)CCCC1; NEtG = CCNCC(=O)O; Sar = CNCC(=O)O
Assays:
[1] = molecular target: GDP-bound NRAS wild-type protein (Homo sapiens, UniProt P01111); assay: Binding to NRAS by surface plasmon resonance (SPR), Single Cycle Kinetics; conditions: for NRAS/KRAS (ratio of KD value with respect to NRAS to KD value with respect to KRAS): GDP-bound NRAS wild-type vs GDP-bound KRAS wild-type
Sequence of GDP-bound NRAS wild-type protein (P01111 whole entry): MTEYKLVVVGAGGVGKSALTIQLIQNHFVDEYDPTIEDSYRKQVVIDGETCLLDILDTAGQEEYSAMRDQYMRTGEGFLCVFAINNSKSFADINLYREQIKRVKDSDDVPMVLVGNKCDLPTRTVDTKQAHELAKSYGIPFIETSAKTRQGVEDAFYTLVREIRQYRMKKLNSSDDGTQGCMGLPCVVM

[2] = molecular target: GDP-bound HRAS wild-type protein (Homo sapiens, UniProt P01112); assay: Binding to HRAS by surface plasmon resonance (SPR), Single Cycle Kinetics; conditions: for HRAS/KRAS (ratio of KD value with respect to HRAS to KD value with respect to KRAS): GDP-bound HRAS wild-type vs GDP-bound KRAS wild-type
Sequence of GDP-bound HRAS wild-type protein (P01112 whole entry): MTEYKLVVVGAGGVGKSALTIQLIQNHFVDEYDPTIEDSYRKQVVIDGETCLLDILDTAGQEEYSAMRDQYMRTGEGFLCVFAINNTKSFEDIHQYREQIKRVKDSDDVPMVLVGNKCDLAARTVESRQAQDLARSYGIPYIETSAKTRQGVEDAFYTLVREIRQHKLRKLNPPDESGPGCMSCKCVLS

[3] = SPR, GDP-bound wild-type proteins

CCCN1C(=O)CN(C)C(=O)CN(CC)C(=O)[C@H]([C@@H](C)CC)NC(=O)[C@H](CC(C)C)N(C)C(=O)C[C@@H](C(=O)N2CCOCC2)NC(=O)[C@H](C2CCCC2)N(C)C(=O)C2(CCCC2)NC(=O)[C@@H]2CC(F)(F)CN2C(=O)[C@H](CCc2ccc(C(F)(F)F)c(Cl)c2)NC(=O)CN(C)C(=O)[C@@H]1Cc1ccc(C(F)(F)F)cc1 [PP0333] ([NMeL]I[NEtG][Sar][NPrPhe(4-CF3)][Sar][hPhe(3-Cl-4-CF3)][Pro(4,4-F2)][Ac5c][NMeGly(cPent)]D-Morpholide; lactam N-11)
NRAS/KRAS (ratio of KD for GDP-bound NRAS wild-type to KD for KRAS) ([1]; SPR): B (a compound having 3 or more and less than 10 is denoted as B) | HRAS/KRAS (ratio of KD for GDP-bound HRAS wild-type to KD for KRAS) ([2]; SPR): C (A compound having a KD ratio of 0.1 or more and less than 3 is denoted as C)

CCC[C@H]1C(=O)N[C@@H]([C@@H](C)CC)C(=O)N(C)CC(=O)N(C)[C@H]2C/C=C\CCN(C2=O)[C@@H](Cc2ccc(C(F)(F)F)cc2)C(=O)N(C)CC(=O)N[C@@H](CCc2ccc(C(F)(F)F)c(OC)c2)C(=O)N2CCOC[C@H]2C(=O)NC2(CC(C)(C)C2)C(=O)N(C)[C@@H](C(CC)CC)C(=O)N(C)[C@H](C(=O)N(C)C)CC(=O)N1C [PP2935]
NRAS/KRAS (ratio of KD value with respect to GDP-bound NRAS wild-type protein to KD value with respect to KRAS) ([1]; class symbols): A (a compound having 10 or more and less than 20 is denoted as A) | HRAS/KRAS (ratio of KD value with respect to GDP-bound HRAS wild-type protein to KD value with respect to KRAS) ([2]; class symbols): A (a compound having 10 or more and less than 20 is denoted as A)

CCC[C@H]1C(=O)N[C@@H]([C@@H](C)CC)C(=O)N(C2CC2)CC(=O)N(C)[C@H]2C/C=C\CCN(C2=O)[C@@H](Cc2ccc(C)cc2)C(=O)N(C)CC(=O)N[C@@H](CCc2ccc(Cl)c(Cl)c2)C(=O)N2C[C@H](OC3CCC3)C[C@H]2C(=O)NC2(CC(C)(C)C2)C(=O)N(C)[C@@H](C2CCCC2)C(=O)N(C)[C@H](C(=O)N(C)C)CC(=O)N1C [PP2616]
NRAS/KRAS (ratio of KD value with respect to GDP-bound NRAS wild-type protein to KD value with respect to KRAS) ([1]; class symbols): A (a compound having 10 or more and less than 20 is denoted as A) | HRAS/KRAS (ratio of KD value with respect to GDP-bound HRAS wild-type protein to KD value with respect to KRAS) ([2]; class symbols): A (a compound having 10 or more and less than 20 is denoted as A)

CC[C@H](C)[C@@H]1NC(=O)[C@H](C2CC2)N(C)C(=O)C[C@@H](C(=O)N(C)CC)N(C)C(=O)[C@H](C2CCCC2)N(C)C(=O)C2(CCC2)NC(=O)[C@@H]2C[C@H](C)CN2C(=O)[C@H](CCc2cc(F)c(C(F)(F)F)c(F)c2)NC(=O)CN(C)C(=O)[C@H](Cc2ccc(C(F)(F)F)cc2)N2CC/C=C\C[C@@H](C2=O)N(C)C(=O)CN(C)C1=O [PP2080]
NRAS/KRAS (ratio of KD value with respect to NRAS to KD value with respect to KRAS) ([1]; SPR): A (a compound having 10 or more and less than 20 is denoted as A) | HRAS/KRAS (ratio of KD value with respect to HRAS to KD value with respect to KRAS) ([2]; SPR): A (a compound having 10 or more and less than 20 is denoted as A)

CCO[C@@H]1C[C@H]2C(=O)NC3(CC(C)(C)C3)C(=O)N(C)[C@@H](C3CCCC3)C(=O)N(C)[C@H](C(=O)N3CCCCC3)CC(=O)N(C)[C@H]3CCCCCc4ccc(cc4)C[C@@H](C(=O)N(C)CC(=O)N[C@@H](CCc4ccc(C(F)(F)F)c(OC)c4)C(=O)N2C1)N1CC/C=C\C[C@@H](C1=O)N(C)C(=O)CN(C)C(=O)[C@H]([C@@H](C)CC)NC3=O [PP3036, (1S,7S,11R,13S,19S,22S,26S,29S,35S,37Z)-19-cyclopentyl-11-ethoxy-7-[2-[3-methoxy-4-(trifluoromethyl)phenyl]ethyl]-3,3′,3′,18,21,25,31,34-octamethyl-29-[(1S)-1-methylpropyl]-22-(piperidine-1-carbonyl)spiro[3,6,9,15,18,21,25,28,31,34,41-undecazapentacyclo[24.15.10.2^43,46.1^35,41.0^9,13]tetrapentaconta-37,43(53),44,46(52)-tetraene-16,1′-cyclobutane]-2,5,8,14,17,20,24,27,30,33,54-undecone]
NRAS/KRAS (ratio of KD value with respect to GDP-bound NRAS wild-type protein to KD value with respect to KRAS) [1, 3]: A (a compound having 10 or more and less than 20 is denoted as A) | HRAS/KRAS (ratio of KD value with respect to GDP-bound HRAS wild-type protein to KD value with respect to KRAS) [2, 3]: B (a compound having 3 or more and less than 10 is denoted as B)

CCO[C@@H]1C[C@H]2C(=O)NC3(CCC3)C(=O)N(C)[C@@H](C3CCCC3)C(=O)N(C)[C@H](C(=O)N3CCOCC3)CC(=O)N(C)[C@@H](CC(C)C)C(=O)N[C@@H]([C@@H](C)CC)C(=O)N3CC[C@H]3C(=O)N(C)[C@H]3CC(C)=CCN(C3=O)[C@@H](Cc3ccc(C(F)(F)F)cc3)C(=O)N(C)CC(=O)N[C@@H](CCc3cc(F)c(C(F)(F)F)c(F)c3)C(=O)N2C1 [PP1040]
NRAS/KRAS (ratio of KD value with respect to NRAS to KD value with respect to KRAS) ([1]; KD ratio, SPR): C (A compound having a KD ratio of 0.1 or more and less than 3 is denoted as C) | HRAS/KRAS (ratio of KD value with respect to HRAS to KD value with respect to KRAS) ([2]; KD ratio, SPR): C (A compound having a KD ratio of 0.1 or more and less than 3 is denoted as C)

CCCN1C(=O)CN(C)C(=O)CN(CC)C(=O)[C@H](C2CCCC2)NC(=O)[C@H](CC(C)C)N(C)C(=O)C[C@@H](C(=O)N2CCOCC2)N(C)C(=O)[C@H](C2CCCC2)N(C)C(=O)C2(CCCC2)NC(=O)[C@@H]2CCCN2C(=O)[C@H](CCc2ccc(C(F)(F)F)c(Cl)c2)NC(=O)CN(C)C(=O)[C@@H]1Cc1ccc(C(F)(F)F)cc1 [PP0293] ([NMeL][Gly(cPent)][NEtG][Sar][NPrPhe(4-CF3)][Sar][hPhe(3-Cl-4-CF3)]P[Ac5c][NMeGly(cPent)][NMeD]-Morpholide; lactam N-11)
NRAS/KRAS (ratio of KD for GDP-bound NRAS wild-type to KD for KRAS) ([1]; SPR): B (a compound having 3 or more and less than 10 is denoted as B) | HRAS/KRAS (ratio of KD for GDP-bound HRAS wild-type to KD for KRAS) ([2]; SPR): C (A compound having a KD ratio of 0.1 or more and less than 3 is denoted as C)
